Drawing on PubChem BioAssay (NCI), this text covers TGI for 7 molecules.

The structures appear in SMILES notation.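 Results reflect a 48-hour exposure of cells in 96-well plates to compound at five concentrations. TGI: total growth inhibition.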

Test systems include TK-10 renal; OVCAR-8 ovarian; MDA-N; MDA-MB-435; NCI-H460 lung; HOP-92 NSCLC; COLO 205 colon; EKVX NSCLC; ACHN renal; HCT-15 colon; A549 NSCLC; IGROV1 ovarian; SW-620 colon; SNB-19 CNS; HOP-62 NSCLC; SK-MEL-5 melanoma; OVCAR-3 ovarian; NCI-H522 lung; MALME-3M melanoma; BT-549 breast.
Experiment in all cases: NCI tumour cell line growth inhibition, 48 h

`CC(C)SC(NC(=O)C1C(C)(C)CCC1(C)C)C(=O)O` (stereo not given): the TGI in the assay with TK-10 renal, in the assay on OVCAR-8 ovarian, with MDA-N, in the assay with MDA-MB-435, in the assay with NCI-H460 lung and in the assay with HOP-92 NSCLC was greater than 100 µM each time. Also, the TGI with COLO 205 colon, in the assay with EKVX NSCLC, in the assay on ACHN renal, in the assay with HCT-15 colon, in the assay with A549 NSCLC and with IGROV1 ovarian was greater than 100 µM in each case. In addition, the TGI in the assay with SW-620 colon, in the assay on SNB-19 CNS, in the assay with HOP-62 NSCLC and in the assay with SK-MEL-5 melanoma was greater than 100 µM in each case.

For the molecule `CCOC(=O)C1=CC(C)(C(=O)OCC)Nc2c(nc(OC)[nH]c2=O)N1` (stereo not given), the TGI in the assay with TK-10 renal, with OVCAR-8 ovarian, with MDA-N, with NCI-H460 lung, in the assay with OVCAR-3 ovarian and in the assay with HOP-92 NSCLC was greater than 10 µM in each case. Besides, the TGI in the assay with COLO 205 colon, with NCI-H522 lung, in the assay on EKVX NSCLC, in the assay on ACHN renal, in the assay on HCT-15 colon and in the assay on A549 NSCLC was greater than 10 µM in each case. Further, the TGI in the assay on IGROV1 ovarian, in the assay with SW-620 colon, with SNB-19 CNS, with HOP-62 NSCLC, in the assay on MALME-3M melanoma and in the assay with SK-MEL-5 melanoma was greater than 10 µM in each case.

As for `Cl/C(=C\C=Nc1ccc(I)cc1)c1ccc2ccccc2c1`, the TGI is 49.6 µM with TK-10 renal; 41.3 µM in the assay with OVCAR-8 ovarian; 47 µM in the assay with BT-549 breast; 28 µM with MDA-MB-435; greater than 79.4 µM with NCI-H460 lung; 30.9 µM in the assay on OVCAR-3 ovarian. Further, the TGI is greater than 85 µM in the assay with HOP-92 NSCLC; 43 µM in the assay on COLO 205 colon; greater than 100 µM in the assay on NCI-H522 lung; greater than 100 µM in the assay on EKVX NSCLC; 29.9 µM in the assay with ACHN renal; 33.8 µM with HCT-15 colon. In addition, the TGI with A549 NSCLC was greater than 100 µM; in the assay on IGROV1 ovarian it was greater than 55.7 µM; in the assay on SW-620 colon it was 68.6 µM; in the assay on SNB-19 CNS, 39.7 µM; in the assay on HOP-62 NSCLC, 40.7 µM; in the assay on MALME-3M melanoma, 42 µM. In addition, the TGI with SK-MEL-5 melanoma is 38.7 µM.

On to `[O-][n+]1onc2c1/C(=N/O)CCC2`, for which the TGI with TK-10 renal, in the assay on OVCAR-8 ovarian, in the assay on MDA-N, in the assay with MDA-MB-435, in the assay with NCI-H460 lung and in the assay on OVCAR-3 ovarian was greater than 100 µM throughout. The TGI in the assay on COLO 205 colon, with NCI-H522 lung, in the assay on EKVX NSCLC, in the assay on ACHN renal, with HCT-15 colon and with A549 NSCLC was greater than 100 µM throughout. Besides, the TGI in the assay with IGROV1 ovarian, in the assay on SW-620 colon, in the assay on SNB-19 CNS, in the assay on HOP-62 NSCLC, in the assay on MALME-3M melanoma and in the assay on SK-MEL-5 melanoma was greater than 100 µM in each case.

Take `Cc1nc(C(N)=S)sc1C(=O)CC(=O)C(=O)Nc1nc2ccccc2[nH]1`: the TGI in the assay on TK-10 renal, in the assay on OVCAR-8 ovarian, in the assay with BT-549 breast, in the assay with MDA-MB-435, with NCI-H460 lung and in the assay with OVCAR-3 ovarian was greater than 100 µM in each case. Further, the TGI with HOP-92 NSCLC, with NCI-H522 lung, in the assay on EKVX NSCLC, in the assay on ACHN renal, in the assay with HCT-15 colon and with A549 NSCLC was greater than 100 µM each time. Further, the TGI with IGROV1 ovarian, with SW-620 colon, in the assay with HOP-62 NSCLC, in the assay on MALME-3M melanoma and in the assay on SK-MEL-5 melanoma was greater than 100 µM each time.

`CN(C)/C=N/NC(=O)/C(C#N)=C/N(C)C`: the TGI in the assay on TK-10 renal, with OVCAR-8 ovarian, in the assay with MDA-N, in the assay on MDA-MB-435, with NCI-H460 lung and in the assay with OVCAR-3 ovarian was greater than 100 µM throughout. Moreover, the TGI in the assay with COLO 205 colon, in the assay with NCI-H522 lung, in the assay with EKVX NSCLC, in the assay with ACHN renal, with HCT-15 colon and in the assay on A549 NSCLC was greater than 100 µM in each case. The TGI in the assay with IGROV1 ovarian, in the assay with SW-620 colon, with SNB-19 CNS, with HOP-62 NSCLC, in the assay with MALME-3M melanoma and with SK-MEL-5 melanoma was greater than 100 µM in each case.

Turning to `COC(=O)/C=C(/OC)[C@H](C)[C@H](/C=C/c1csc(-c2csc(C(C)C)n2)n1)OC`, the TGI is greater than 100 µM with TK-10 renal; greater than 100 µM with OVCAR-8 ovarian; greater than 100 µM with BT-549 breast; greater than 100 µM in the assay with MDA-MB-435; greater than 100 µM with NCI-H460 lung; greater than 56.3 µM in the assay on OVCAR-3 ovarian. In addition, the TGI in the assay with HOP-92 NSCLC, with COLO 205 colon, in the assay with NCI-H522 lung, with EKVX NSCLC, with ACHN renal and in the assay on HCT-15 colon was greater than 100 µM in each case. Besides, the TGI with A549 NSCLC, in the assay with IGROV1 ovarian, in the assay on SW-620 colon, with SNB-19 CNS, in the assay on HOP-62 NSCLC and in the assay with MALME-3M melanoma was greater than 100 µM in each case. Further, the TGI with SK-MEL-5 melanoma came to 19.9 µM.
